# Legend:
# [1] = tested on: miR-7; experiment: miR-7 quantification by RT-qPCR in MD1 cells; format: cell-based, human
# Description: (§1) TDMs were cultured as previously described^1. After 4 days in differentiation medium (MDM), cells were transfected with a combination of two siRNAs (SEQ ID NO: 40 and 43) targeting MSI2 transcripts (final concentration 100 nM) using Lipofectamine RNAiMAX transfection reagent (Invitrogen, Madrid, Spain)) following the manufacturer's recommendations. After 48 h, the medium containing the siRNAs was replaced by fresh MDM. 24 h later, cells were collected. As a control, the same protocol was performed using 100 nM of a siRNA with a scrambled sequence (Cat #4390843 for negative control). Gapmers against MSI2 and agomiR-107 were transfected following the same protocol using two different concentrations, 30 and 150 nM in the case of Gapmers and 100 and 300 nM in the case of agomiR-107. To treat cells with the small molecule Ro-08-2750 (Tocris Cat. No. 2272, Bristol, UK)), cells were cultured as before. Briefly, after 96 h in MDM, the medium was supplemented with Ro-08-2750 at a final concentration of 10 μM (0.8% DMSO) or with the vehicle, DMSO 0.8%, for 48 h. Then cells were collected for further analyses.
# (§2) All the procedures were performed as previously described^1.
# [2] = tested on: P21; experiment: P21 expression by RT-qPCR in MD1 muscle cells; format: cell-based, H. sapiens
# Description: as §1, §2
compound,measurement,setting,value
"Cc1cc2nc3c(=O)[nH]c(=O)nc-3n(C)c2cc1C=O [Ro 08-2750, 2,3,4,10-Tetrahydro-7,10-dimethyl-2,4-dioxobenzo[g]pteridine-8-carboxaldehyde]",miR-7 levels,"[1]; MD1 TDMs, Ro-08-2750 at 10 μM or the agomiR",significant derepression
same,"FC miR-7 expression respect to MD1, Low concentration","[1]; MD1 cells, ASO 30 nM, Ro 08-2750 10 μM, siRNA 100 nM, * significant",2.52 fold
same,expression of P21,"[2]; 10 μM, all cell lines (immortalized DM1 myoblasts, DM1-14, DM1-16)",rescued
same,P21 levels,"[2]; MD1 TDMs, Ro-08-2750 10 μM / agomiR-107",not to produce a significant effect
